Test results from patent publication US20240335462A1, “SULFUR/PHOSPHORUS-CONTAINING ARYL COMPOUND AND APPLICATION THEREOF” (MEDSHINE DISCOVERY INC., priority 2021, published 2024).
Marks after values point to notes of the source that are not given here.

Test system: IL-23-induced psoriasis-like skin lesions
Experiment: Mouse psoriasis-like model induced by IL-23
Type: in vivo, C57BL/6 mice
Design: Total score for epidermal hyperplasia of ear pinnae / AUC of total score for epidermal hyperplasia of ear pinnae / Pathological score: Degree of keratinization / Pathological score: Epidermal thickness / Pathological score: Dermal thickness / Pathological score: Inflammatory cell infiltration / Comprehensive pathological score: scale not given here
Details: for AUC of total score for epidermal hyperplasia of ear pinnae: Day 0 to Day 8; for Comprehensive pathological score / Pathological score: Degree of keratinization / Pathological score: Dermal thickness / Pathological score: Epidermal thickness / Pathological score: Inflammatory cell infiltration: right ear H&E sections
Description: The purpose of this experiment was to evaluate the prophylactic and therapeutic effect of the test substance on IL-23-induced psoriasis-like skin lesions in mice by intradermal injection of IL-23 into the ear pinnae in a psoriasis-like skin lesion model.
Female C57BL/6 mice of qualified body weight were randomly divided into groups, with 6 mice per group. The grouping and administration information was as follows. The groups were: blank control group, model group, positive control Ustekinumab (5 mg/kg) group, WX-011A hydrochloride (30, 50 mg/kg) group, and WX-020 sulfate (30, 50 mg/kg) group. Except for the blank control group, the animals in the other groups received an intradermal injection of IL-23 (3 μg/10 μL/mouse/day, QD) in the right ear for 8 consecutive days (Day 0 to Day 7). The blank control group received an intradermal injection of an equal volume of saline solution (10 μL/mouse/day, QD) in the right ear for 8 consecutive days (Day 0 to Day 7). Concurrent with model induction, the solvent or test drug was orally administered twice a day (Bid) at 6-hour intervals for 8 consecutive days (Day 0 to Day 7). The positive control was subcutaneously injected on Day 0 and Day 3 (a total of 2 doses). During the administration period, the body weight of the animals was monitored every two days. On Day 0, Day 2, Day 4, Day 6 (all before IL-23 injection), and Day 8, the thickness of the right ear of the mice was measured, and the appearance of the ear pinnae was observed and scored.
The compounds were all prepared into a clear solution with 10% DMSO+[…] as a solvent for PO (oral gavage) administration. Administration volume parameters: 10 mL/kg based on the body weight of the mice.
After grouping, IL-23 (3 μg/10 μL/mouse/day, QD) was injected intradermally into the right ears of the mice for 8 consecutive days (Day 0 to Day 7). Measurements of the thickness of the right ear and observations and scoring of the appearance of the ear pinnae were performed on Day 0, Day 2, Day 4, Day 6 (all before IL-23 injection), and Day 8. At the end of the experiment (Day 8), the left ear tissues of the mice from groups G4 to G10 (3 animals per group at each time point) were collected. The right ear, which had been modeled, was excised, an 8 mm ear punch was taken along the edge of the pinna, and its weight was measured. The excised right ear tissues were fixed in formalin for histopathological examination (H&E staining).
Concurrent with model induction, corresponding drug treatment was given for administration. Except for the positive control drug (Ustekinumab), which was subcutaneously injected on Day 0 and Day 3 (once a day), control and test drugs for each dose group were orally administered by gavage twice a day at 6-hour intervals for 8 consecutive days (Day 0 to Day 7).
The pathological scoring of mouse ear tissue sections was conducted according to the criteria in Table 33.
The experimental data are represented as Mean±SD; statistical analysis was performed using IBM SPSS Statistics 21, with p<0.05 considered to indicate a statistically significant difference between the two groups. The effect of the test substance on the thickness of mouse ears in the IL-23 induced mouse pinna epidermal hyperplasia model is shown in Table 34. The effect of the test substance on the total score and AUC for […] induced mouse pinna epidermal hyperplasia is shown in Table 35.

`CNC(=O)c1cnc(NC(=O)C2CC2)cc1Nc1cccc(-c2ccc(S(=O)(=O)C(C)C)cn2)c1OC.O=S(=O)(O)O` [Sulfate of WX-020] was tested, and the “Ear thickness (mm)” value (30 mg/kg PO BID, Day 0) was 0.197 mm, the “Total score for epidermal hyperplasia of ear pinnae” value (30 mg/kg PO BID, Day 0) was 0.00 and the “AUC of total score for epidermal hyperplasia of ear pinnae” value (“AUC of total score” for short) (30 mg/kg PO BID) was 7.67. The “Ear thickness (mm)” value (30 mg/kg PO BID, Day 2) was 0.283 mm, the “Total score for epidermal hyperplasia of ear pinnae” value (30 mg/kg PO BID, Day 2) was 0.00 and the “Ear thickness (mm)” value (30 mg/kg PO BID, Day 4) was 0.311 mm. The “Total score for epidermal hyperplasia of ear pinnae” value (30 mg/kg PO BID, Day 4) was 0.50*, the “Ear thickness (mm)” value (30 mg/kg PO BID, Day 6) was 0.351** mm and the “Total score for epidermal hyperplasia of ear pinnae” value (30 mg/kg PO BID, Day 6) was 2.5. The “Ear thickness (mm)” value (30 mg/kg PO BID, Day 8) was 0.343^p=0.082 mm, the “Total score for epidermal hyperplasia of ear pinnae” value (30 mg/kg PO BID, Day 8) was 1.67* and the Comprehensive pathological score (30 mg/kg PO BID) was 4.17**. The “Pathological score: Degree of keratinization” value (from here on “Pathological score: Degree”) (30 mg/kg PO BID) was 0.83**, the “Pathological score: Dermal thickness” value (30 mg/kg PO BID) was 1.33 and the “Pathological score: Epidermal thickness” value (30 mg/kg PO BID) was 0.83**. For the same molecule, the “Pathological score: Inflammatory cell infiltration” value (30 mg/kg PO BID) was 1.17**, the “Ear thickness (mm)” value (50 mg/kg PO BID, Day 0) was 0.195 mm and the “Total score for epidermal hyperplasia of ear pinnae” value (50 mg/kg PO BID, Day 0) was 0.00. The “AUC of total score” value (50 mg/kg PO BID) was 5.00*, the “Ear thickness (mm)” value (50 mg/kg PO BID, Day 2) was 0.289 mm and the “Total score for epidermal hyperplasia of ear pinnae” value (50 mg/kg PO BID, Day 2) was 0.00. The “Ear thickness (mm)” value (50 mg/kg PO BID, Day 4) was 0.303* mm, the “Total score for epidermal hyperplasia of ear pinnae” value (50 mg/kg PO BID, Day 4) was 0.50* and the “Ear thickness (mm)” value (50 mg/kg PO BID, Day 6) was 0.311** mm. The “Total score for epidermal hyperplasia of ear pinnae” value (50 mg/kg PO BID, Day 6) was 1.33*, the “Ear thickness (mm)” value (50 mg/kg PO BID, Day 8) was 0.317** mm and the “Total score for epidermal hyperplasia of ear pinnae” value (50 mg/kg PO BID, Day 8) was 1.33**. For the same molecule, the Comprehensive pathological score (50 mg/kg PO BID) was 2.17**, the “Pathological score: Degree” value (50 mg/kg PO BID) was 0.33** and the “Pathological score: Dermal thickness” value (50 mg/kg PO BID) was 0.50. For the same molecule, the “Pathological score: Epidermal thickness” value (50 mg/kg PO BID) was 0.67** and the “Pathological score: Inflammatory cell infiltration” value (50 mg/kg PO BID) was 0.67**.

For `CNC(=O)c1nnc(NC(=O)C2CC2)cc1Nc1cccc(-c2ncc(S(=N)(=O)C(C)C)cn2)c1OC.Cl` (single isomer, unassigned) [Hydrochloride of WX-011A], the “Ear thickness (mm)” value (30 mg/kg PO BID, Day 0) was 0.199 mm, the “Total score for epidermal hyperplasia of ear pinnae” value (30 mg/kg PO BID, Day 0) was 0.00 and the “AUC of total score” value (30 mg/kg PO BID) was 3.17**. For the same molecule, the “Ear thickness (mm)” value (30 mg/kg PO BID, Day 2) was 0.274* mm, the “Total score for epidermal hyperplasia of ear pinnae” value (30 mg/kg PO BID, Day 2) was 0.00 and the “Ear thickness (mm)” value (30 mg/kg PO BID, Day 4) was 0.299* mm. For the same molecule, the “Total score for epidermal hyperplasia of ear pinnae” value (30 mg/kg PO BID, Day 4) was 0.33*, the “Ear thickness (mm)” value (30 mg/kg PO BID, Day 6) was 0.297** mm and the “Total score for epidermal hyperplasia of ear pinnae” value (30 mg/kg PO BID, Day 6) was 0.67**. For the same molecule, the “Ear thickness (mm)” value (30 mg/kg PO BID, Day 8) was 0.301** mm, the “Total score for epidermal hyperplasia of ear pinnae” value (30 mg/kg PO BID, Day 8) was 1.17** and the Comprehensive pathological score (30 mg/kg PO BID) was 1.17**. For the same molecule, the “Pathological score: Degree” value (30 mg/kg PO BID) was 0.17**, the “Pathological score: Dermal thickness” value (30 mg/kg PO BID) was 0.17 and the “Pathological score: Epidermal thickness” value (30 mg/kg PO BID) was 0.67**. The “Pathological score: Inflammatory cell infiltration” value (30 mg/kg PO BID) was 0.17**, the “Ear thickness (mm)” value (50 mg/kg PO BID, Day 0) was 0.197 mm and the “Total score for epidermal hyperplasia of ear pinnae” value (50 mg/kg PO BID, Day 0) was 0.00. The “AUC of total score” value (50 mg/kg PO BID) was 2.67**, the “Ear thickness (mm)” value (50 mg/kg PO BID, Day 2) was 0.279^p=0.081 mm and the “Total score for epidermal hyperplasia of ear pinnae” value (50 mg/kg PO BID, Day 2) was 0.00. The “Ear thickness (mm)” value (50 mg/kg PO BID, Day 4) was 0.291 * mm, the “Total score for epidermal hyperplasia of ear pinnae” value (50 mg/kg PO BID, Day 4) was 0.17** and the “Ear thickness (mm)” value (50 mg/kg PO BID, Day 6) was 0.299** mm. The “Total score for epidermal hyperplasia of ear pinnae” value (50 mg/kg PO BID, Day 6) was 0.67**, the “Ear thickness (mm)” value (50 mg/kg PO BID, Day 8) was 0.300** mm and the “Total score for epidermal hyperplasia of ear pinnae” value (50 mg/kg PO BID, Day 8) was 1.00*. The Comprehensive pathological score (50 mg/kg PO BID) was 1.83**, the “Pathological score: Degree” value (50 mg/kg PO BID) was 0.33** and the “Pathological score: Dermal thickness” value (50 mg/kg PO BID) was 0.50. The “Pathological score: Epidermal thickness” value (50 mg/kg PO BID) was 0.50** and the “Pathological score: Inflammatory cell infiltration” value (50 mg/kg PO BID) was 0.50**.
